# Measured values reported in patent US7414049B2, “4-oxo-2,3,4,5-tetrahydro-benzo[b][1,4]diazepine derivatives” (Hoffmann-La Roche Inc., priority 2006, dated 2008).
# Assays:
# [1] = Microsome incubation, metabolic stability (mouse); type: in vitro ADME; settings: for microsomal CLint at 10 μM: pH 7.4, liver microsomes, test compound 10 μM, 37° C., read-out: Intrinsic clearance (mouse)
# [2] = Microsome incubation, metabolic stability (human); type: in vitro ADME; settings: for microsomal CLint at 10 μM: pH 7.4, human liver microsomes 2.0 mg prot/mL, test compound 10 μM, 37° C., read-out: Intrinsic clearance (human)
# Description: The compounds of formula I of the present invention are further characterized by high metabolic stability. This parameter is a prerequisite for good bioavailability, which is necessary to obtain medicaments with acceptable in-vivo activity. The metabolic stability has been tested by the following method:
# Incubation mixtures consisted of liver microsomes (rat 1.0 mg prot/mL or human 2.0 mg prot/mL), test compound 10 μM, MgCl2 (3.3 mM), and an NADPH regenerating system consisting of glucose-6-phosphate dehydrogenase, NADPH and glucose-6-phosphate (equivalent to 1 mM NADPH) in a total volume of 1.0 mL of potassium phosphate buffer 100 mM pH 7.4. Reactions were initiated by addition of the NADPH regenerating system at 37° C. At the time of 1, 5, 9, 13, 17, 21, 25, and 29 min a 5 μL aliquot was directly analysed on a HPLC-MS/MS system consisting of a HP 1100 quaternary pump with degasser and a PE-Sciex API-2000 MS/MS spectrometer. The analytical column was a Waters Symmetry Shield RP8 (2.1*50 mm with a […] particle size). A polarity non linear gradient from phase A (MeOH/Ac. Form. 1% 20/80) to phase B (MeOH) was applied for a total run time of 2 minutes at a flow rate of 0.25 mL/min. The PE-Sciex API-2000 MS/MS spectrometer was used for detection of the parent compound. In vivo metabolic clearance was predicted according to published procedures [Houston, Biochem. Pharmacol. 47:1469-1479 (1994)]. In brief, the intrinsic clearance (Clearance, see table below) is calculated from the measured in vitro half-life taking into account incubation volume and microsomal protein used for the in vitro incubation. The intrinsic clearance is expressed in terms of μl/min/mg microsomal protein. For in vivo extrapolations, the hepatic extraction ratio (E) was calculated. Here it is reported the % MAB value which is equal to 1-E. The MAB (maximal achievable bioavailability) values express the maximal bioavailability that one can achieve with the given clearance values.
# [3] = THESA assay, thermodynamic solubility; type: physicochemical; settings: 22.5 °C, aqueous buffer, thermodynamic from solid, 50 mM phosphate buffer
# Description: In addition, the compounds of the present invention have been tested in a THESA assay for determination of the thermodynamic solubility.
# Approximately 2 mg of each compound was added in excess to a 50 mM phosphate buffer, at room temperature (22.5±1° C.). Each sample was placed in a microanalysis tube, which was sonicated for 1 h and agitated for 2 h. All suspensions were left overnight. At the next day all pHs were measured with a pH-meter and the samples filtered with a micronic filterplate (MSGVN2250) to separate the solid material from the solution. Then, all solutions were analyzed by HPLC. The calibration line was established by different concentrations of the compound in DMSO. From this regression equation the solubility of the compound was determined.
# [4] = maximal achievable bioavailability = 1-E, extrapolated from intrinsic clearance
smiles,measurement,setting,value
"CC(O)(C(=O)NCC(F)(F)C(F)(F)F)C(=O)N[C@H]1CN(C(=O)OCC(F)(F)F)c2ccccc2N(CCO)C1=O (single isomer, unassigned) [Example 12, (S)-5-(2-Hydroxy-ethyl)-3-[(S or R)-2-hydroxy-2-(2,2,3,3,3-pentafluoro-propylcarbamoyl) -propionylamino]-4-oxo-2,3,4,5-tetrahydro-benzo[b][1,4]diazepine-1-carboxylic acid 2,2,2-trifluoro-ethyl ester]",MAB (mouse),[1]; [4],97.2%
same,microsomal CLint at 10 μM,[1],0.9 µL/min/mg
same,MAB (human),[2]; [4],84.3%
same,microsomal CLint at 10 μM,[2],2.9 µL/min/mg
same,solubility thermodynamic,[3]; room temperature (22.5±1° C.),3230 µg/mL
"CC(O)(C(=O)NCC(F)(F)C(F)(F)F)C(=O)N[C@H]1CN(CC(F)(F)F)c2ccccc2NC1=O (single isomer, unassigned) [Example 4, (R or S)-2-Hydroxy-2-methyl-N-[(S)-4-oxo-1-(2,2,2-trifluoro-ethyl)-2,3,4,5-tetrahydro-1H-benzo[b][1,4]diazepin-3-yl]-N′-(2,2,3,3,3-pentafluoro-propyl)-malonamide and (S or R)-2-Hydroxy-2-methyl-N-[(S)-4-oxo-1-(2,2,2-trifluoro-ethyl)-2,3,4,5-tetrahydro-1H-benzo[b][1,4]diazepin-3-yl]-N′-(2,2,3,3,3-pentafluoro-propyl)-malonamide]",MAB (mouse),[1]; comparison table,19.6%
same,MAB (mouse),[1]; [4],19.6%
same,microsomal CLint at 10 μM,[1],130 µL/min/mg
same,MAB (human),[2]; comparison table,55.5%
same,MAB (human),[2]; [4],55.5%
same,microsomal CLint at 10 μM,[2],12.5 µL/min/mg
"CC(O)(C(=O)NCC(F)(F)C(F)(F)F)C(=O)N[C@H]1CN(CC(F)(F)F)c2ccc(F)cc2NC1=O (single isomer, unassigned) [Example 3, N-[(S)-7-Fluoro-4-oxo-1-(2,2,2-trifluoro-ethyl)-2,3,4,5-tetrahydro-1H-benzo[b][1,4]diazepin-3-yl]-(R or S)-2-hydroxy-2-methyl-N′-(2,2,3,3,3-pentafluoro-propyl)-malonamide and N-[(S)-7-Fluoro-4-oxo-1-(2,2,2-trifluoro-ethyl)-2,3,4,5-tetrahydro-1H-benzo[b][1,4]diazepin-3-yl]-(S or R)-2-hydroxy-2-methyl-N′-(2,2,3,3,3-pentafluoro-propyl)-malonamide]",MAB (mouse),[1]; [4],20.1%
same,microsomal CLint at 10 μM,[1],126 µL/min/mg
same,MAB (human),[2]; [4],56.7%
same,microsomal CLint at 10 μM,[2],11.9 µL/min/mg
"CC(O)(C(=O)NCC(F)(F)C(F)(F)F)C(=O)N[C@H]1CN(C(=O)OCC(F)(F)F)c2cc(F)c(F)cc2N(CC(F)(F)F)C1=O (single isomer, unassigned) [Example 2]",MAB (mouse),[1]; [4],83.0%
same,microsomal CLint at 10 μM,[1],6.5 µL/min/mg
same,MAB (human),[2]; [4],54.3%
same,microsomal CLint at 10 μM,[2],13.1 µL/min/mg
"CC(O)(C(=O)NCC(F)(F)C(F)(F)F)C(=O)N[C@H]1CN(CCCC(F)(F)F)c2ccccc2NC1=O (single isomer, unassigned) [Example 6, (R or S)-2-Hydroxy-2-methyl-N-[(S)-4-oxo-1-(4,4,4-trifluoro-butyl)-2,3,4,5-tetrahydro-1H-benzo[b][1,4]diazepin-3-yl]-N′-(2,2,3,3,3-pentafluoro-propyl)-malonamide and (S or R)-2-Hydroxy-2-methyl-N-[(S)-4-oxo-1-(4,4,4-trifluoro-butyl)-2,3,4,5-tetrahydro-1H-benzo[b][1,4]diazepin-3-yl]-N′-(2,2,3,3,3-pentafluoro-propyl)-malonamide]",MAB (mouse),[1]; [4],25.0%
same,microsomal CLint at 10 μM,[1],94.9 µL/min/mg
same,MAB (human),[2]; [4],49.4%
same,microsomal CLint at 10 μM,[2],15.9 µL/min/mg
same,solubility thermodynamic,[3]; room temperature (22.5±1° C.),124 µg/mL
"CC(O)(C(=O)NCC(F)(F)C(F)(F)F)C(=O)N[C@H]1CN(C(=O)OCCCC(F)(F)F)c2ccccc2N(CCCC(F)(F)F)C1=O (single isomer, unassigned) [Example 13]",MAB (mouse),[1]; [4],100%
same,MAB (human),[2]; [4],87.4%
same,microsomal CLint at 10 μM,[2],2.2 µL/min/mg
"CC(O)(C(=O)NCC(F)(F)C(F)(F)F)C(=O)N[C@H]1CN(CCC(F)(F)F)c2ccccc2NC1=O (single isomer, unassigned) [Example 5, (R or S)-2-Hydroxy-2-methyl-N-[(S)-4-oxo-1-(3,3,3-trifluoro-propyl)-2,3,4,5-tetrahydro-1H-benzo[b][1,4]diazepin-3-yl]-N′-(2,2,3,3,3-pentafluoro-propyl)-malonamide and (S or R)-2-Hydroxy-2-methyl-N-[(S)-4-oxo-1-(3,3,3-trifluoro-propyl)-2,3,4,5-tetrahydro-1H-benzo[b][1,4]diazepin-3-yl]-N′-(2,2,3,3,3-pentafluoro-propyl)-malonamide]",MAB (mouse),[1]; [4],10.8%
same,microsomal CLint at 10 μM,[1],262 µL/min/mg
same,MAB (human),[2]; [4],45.5%
same,microsomal CLint at 10 μM,[2],18.6 µL/min/mg
same,solubility thermodynamic,[3]; room temperature (22.5±1° C.),67 µg/mL
"CC(O)(C(=O)NCC(F)(F)C(F)(F)F)C(=O)N[C@H]1CN(CC(F)(F)F)c2ccccc2N(CCO)C1=O (single isomer, unassigned) [Example 9, (R or S)-2-Hydroxy-N-[(S)-1-(2-hydroxy-ethyl)-2-oxo-5-(2,2,2-trifluoro-ethyl)-2,3,4,5-tetrahydro-1H-benzo[b][1,4]diazepin-3-yl]-2-methyl-N′-(2,2,3,3,3-pentafluoro-propyl)-malonamide]",MAB (mouse),[1]; [4],32.7%
same,microsomal CLint at 10 μM,[1],65.2 µL/min/mg
same,MAB (human),[2]; [4],88.2%
same,microsomal CLint at 10 μM,[2],2.1 µL/min/mg
same,solubility thermodynamic,[3]; room temperature (22.5±1° C.),1780 µg/mL
"CC(O)(C(=O)NCC(F)(F)C(F)(F)F)C(=O)N[C@H]1CN(C(=O)OCC(F)(F)F)c2cc(F)c(F)cc2NC1=O (single isomer, unassigned) [Example 1, (S)-7,8-Difluoro-3-[(R or S)-2-hydroxy-2-(2,2,3,3,3-pentafluoro-propylcarbamoyl)-propionylamino]-4-oxo-2,3,4,5-tetrahydro-benzo[b][1,4]diazepine-1-carboxylic acid 2,2,2-trifluoro-ethyl ester and (S)-7,8-Difluoro-3-[(S or R)-2-hydroxy-2-(2,2,3,3,3-pentafluoro-propylcarbamoyl)-propionylamino]-4-oxo-2,3,4,5-tetrahydro-benzo[b][1,4]diazepine-1-carboxylic acid 2,2,2-trifluoro-ethyl ester]",MAB (mouse),[1]; [4],58.5%
same,microsomal CLint at 10 μM,[1],22.4 µL/min/mg
same,MAB (human),[2]; [4],99.7%
same,microsomal CLint at 10 μM,[2],0.05 µL/min/mg
same,solubility thermodynamic,[3]; room temperature (22.5±1° C.),77 µg/mL
CC(C(=O)NCC(F)(F)C(F)(F)F)C(=O)N[C@H]1CN(C(=O)OCC2CC2)c2ccccc2N(CC(F)(F)F)C1=O (stereo partly shown) [reference compound],MAB (mouse),[1]; comparison table,47.6%
same,MAB (human),[2]; comparison table,26.8%
"CC(O)(C(=O)NCC(F)(F)C(F)(F)F)C(=O)N[C@H]1CN(C(=O)OCC(F)(F)F)c2ccccc2N(CC(F)(F)F)C1=O (single isomer, unassigned) [Example 11]",MAB (mouse),[1]; comparison table,74.9%
same,MAB (mouse),[1]; [4],74.9%
same,microsomal CLint at 10 μM,[1],10.6 µL/min/mg
same,MAB (human),[2]; comparison table,100.0%
same,MAB (human),[2]; [4],100.0%
same,solubility thermodynamic,"[3]; comparison table, room temperature",37 µg/mL
"CC(O)(C(=O)NCC(F)(F)C(F)(F)F)C(=O)N[C@H]1CN(C(=O)OCC(F)(F)F)c2ccccc2NC1=O (single isomer, unassigned) [Example 10, (S)-3-[(R or S)-2-Hydroxy-2-(2,2,3,3,3-pentafluoro-propylcarbamoyl)-propionylamino]-4-oxo-2,3,4,5-tetrahydro-benzo[b][1,4]diazepine-1-carboxylic acid 2,2,2-trifluoro-ethyl ester and (S)-3-[(S or R)-2-Hydroxy-2-(2,2,3,3,3-pentafluoro-propylcarbamoyl)-propionylamino]-4-oxo-2,3,4,5-tetrahydro-benzo[b][1,4]diazepine-1-carboxylic acid 2,2,2-trifluoro-ethyl ester]",MAB (mouse),[1]; [4],85.5%
same,microsomal CLint at 10 μM,[1],5.4 µL/min/mg
same,MAB (human),[2]; [4],100.0%
same,solubility thermodynamic,[3]; room temperature (22.5±1° C.),74 µg/mL
"CC(O)(C(=O)NCC(F)(F)C(F)(F)F)C(=O)N[C@H]1CN(CCO)c2ccccc2NC1=O (mixture of isomers) [Example 7, (RS)-2-Hydroxy-N-[(S)-1-(2-hydroxy-ethyl)-4-oxo-2,3,4,5-tetrahydro-1H-benzo[b][1,4]diazepin-3-yl]-2-methyl-N′-(2,2,3,3,3-pentafluoro-propyl)-malonamide]",MAB (mouse),[1]; [4],49.3%
same,microsomal CLint at 10 μM,[1],32.5 µL/min/mg
same,MAB (human),[2]; [4],74.9%
same,microsomal CLint at 10 μM,[2],5.2 µL/min/mg
